Experimental data: patent publication US10881653B2, “Tricyclic compounds and their use in the treatment of cancer” (The United States of America, as represented by the …, priority 2015, dated 2021)
Structures can show the parent of a compound that is named as a salt. Where two headings read alike, the source gives them in different places.

What was measured:
[1] = target: T1, recombinant thioredoxin reductase 1 (TrxR1) (Homo sapiens, UniProt Q16881); assay: Inhibition of recombinant TrxR1 (DTNB assay); format: biochemical
T1 sequence (Q16881 1-649): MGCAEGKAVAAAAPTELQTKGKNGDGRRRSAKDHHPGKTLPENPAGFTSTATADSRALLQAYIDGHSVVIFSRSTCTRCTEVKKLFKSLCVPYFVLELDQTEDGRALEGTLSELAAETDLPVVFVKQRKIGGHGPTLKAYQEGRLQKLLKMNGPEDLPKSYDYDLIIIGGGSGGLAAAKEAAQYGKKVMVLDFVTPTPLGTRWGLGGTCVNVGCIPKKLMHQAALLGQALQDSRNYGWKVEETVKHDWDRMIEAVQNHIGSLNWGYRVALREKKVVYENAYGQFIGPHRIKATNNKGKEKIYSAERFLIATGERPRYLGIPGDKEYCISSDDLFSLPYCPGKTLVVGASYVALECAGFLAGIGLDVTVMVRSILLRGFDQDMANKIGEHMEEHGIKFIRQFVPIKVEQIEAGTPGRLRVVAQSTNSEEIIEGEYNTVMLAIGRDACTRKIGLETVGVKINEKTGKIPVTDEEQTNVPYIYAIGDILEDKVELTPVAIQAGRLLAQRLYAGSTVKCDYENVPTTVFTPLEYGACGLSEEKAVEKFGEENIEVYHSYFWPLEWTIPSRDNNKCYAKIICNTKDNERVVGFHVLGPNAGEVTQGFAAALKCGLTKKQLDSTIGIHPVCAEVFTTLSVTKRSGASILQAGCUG
Procedure: (§1) Small molecule inhibition of recombinant thioredoxin reductase 1 (TrxR1) and gluthathione reductase (GR) was examined in 96-well plate format. 15 nM TrxR1 was incubated in the presence of 250 μM NADPH, 0.1 mg/ml BSA, and various concentrations of the compound of Example 1 (1% DMSO final) in 50 mM Tris (pH 7.5) and 2 mM EDTA buffer for 15 minutes. Following the incubation period, 2.5 mM DTNB was added to each well and the change in O.D. at 412 nm was followed. Percent activity was determined using DMSO vehicle and no TrxR1 (blank) controls. 2 nM GR was incubated in the presence of 250 μM NADPH, 0.1 mg/ml BSA, and various concentrations of compounds (1% DMSO final) in 50 mM Tris (pH 7.5) and 2 mM EDTA buffer for 15 minutes. Following the incubation period, 1 mM GSSG was added to each well and the change in O.D. at 340 nm was followed. Percent activity was determined using DMSO vehicle and no GR (blank) controls.

[2] = target: T2, gluthathione reductase (GR) (Homo sapiens, UniProt P00390); assay: Inhibition of recombinant GR (GSSG assay); format: biochemical
T2 sequence (P00390 44-522): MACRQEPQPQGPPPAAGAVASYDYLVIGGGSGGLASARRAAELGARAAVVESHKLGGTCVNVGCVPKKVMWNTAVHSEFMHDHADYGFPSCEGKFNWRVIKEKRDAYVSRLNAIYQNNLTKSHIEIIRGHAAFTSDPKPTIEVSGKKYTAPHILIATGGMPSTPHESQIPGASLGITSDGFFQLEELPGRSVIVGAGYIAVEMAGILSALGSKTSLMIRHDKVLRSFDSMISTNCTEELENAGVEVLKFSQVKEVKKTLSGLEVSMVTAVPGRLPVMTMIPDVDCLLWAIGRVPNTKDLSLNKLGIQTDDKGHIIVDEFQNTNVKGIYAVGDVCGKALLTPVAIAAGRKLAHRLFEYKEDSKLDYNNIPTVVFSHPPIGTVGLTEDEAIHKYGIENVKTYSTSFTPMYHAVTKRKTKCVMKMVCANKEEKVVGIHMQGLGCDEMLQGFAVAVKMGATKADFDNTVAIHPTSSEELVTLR
Procedure: as §1

[3] = Biological Example 1, 15 nM TrxR1, 250 μM NADPH, 15 minutes incubation, read-out: TrxR inhibition
[4] = Biological Example 4, assays of Biological Example 1, read-out: TrxR Inhibition
[5] = Biological Example 1, 2 nM GR, 250 μM NADPH, 15 minutes incubation
[6] = Biological Example 4, assays of Biological Example 1

| SMILES | IC50 [1, 3] [µM] | IC50 [1, 4] [µM] | IC50 [2, 5] [µM] | IC50 [2, 6] [µM] |
| --- | --- | --- | --- | --- |
| O=C1C=C[C@H]2[C@@H]3C(=O)N(C4CCCCC4)C(=O)[C@@H]3[C@@H]1N2Cc1ccccc1 (relative stereo) [Example 9, exo-11-Benzyl-4-cyclohexyl-4,11-diazatricyclo[5.3.1.0^2,6]undec-9-ene-3,5,8-trione Trifluoroacetate] | 1.85 | 1.85 | > 100 | > 100 |
| O=C1C=C[C@H]2[C@@H]3C(=O)N(Cc4ccccc4)C(=O)[C@@H]3[C@@H]1N2Cc1ccccc1 (relative stereo) [Example 11, exo-4,11-Dibenzyl-4,11-diazatricyclo[5.3.1.0^2,6]undec-9-ene-3,5,8-trione Trifluoroacetate] | – | 0.9 | – | > 100 |
| CC1=CC(=O)[C@@H]2[C@H]3C(=O)N(C4CCCCC4)C(=O)[C@H]3[C@H]1N2Cc1ccccc1 (relative stereo) [Example 14, exo-11-Benzyl-4-cyclohexyl-10-methyl-4,11-diazatricyclo[5.3.1.0^2,6]undec-9-ene-3,5,8-trione Trifluoroacetate] | – | 33.3 | – | > 100 |
| CC(C)(C)N1C(=O)[C@@H]2[C@H](C1=O)[C@H]1C(=O)C=C[C@@H]2N1Cc1ccccc1 (relative stereo) [Example 17, exo-11-Benzyl-4-(tert-butyl)-4,11-diazatricyclo[5.3.1.0^2,6]undec-9-ene-3,5,8-trione Trifluoroacetate] | – | 1.64 | – | > 100 |
| O=C1C=C[C@H]2[C@@H]3C(=O)N(c4ccccc4)C(=O)[C@@H]3[C@@H]1N2Cc1ccc(F)cc1Cl (relative stereo) [Example 18, exo-11-(2-Chloro-4-fluorobenzyl)-4-phenyl-4,11-diazatricyclo[5.3.1.0^2,6]-undec-9-ene-3,5,8-trione Trifluoroacetate] | 2.45 | 0.94 | 70.4 | 22 |
| Cc1ccccc1CN1[C@@H]2C(=O)C=C[C@H]1[C@@H]1C(=O)N(c3ccccc3)C(=O)[C@@H]12 (relative stereo) [Example 19, exo-11-(2-Methylbenzyl)-4-phenyl-4,11-diazatricyclo[5.3.1.0^2,6]undec-9-ene-3,5,8-trione Trifluoroacetate] | – | 1.5 | – | > 100 |
| Cc1cccc(CN2[C@@H]3C(=O)C=C[C@H]2[C@@H]2C(=O)N(c4ccccc4)C(=O)[C@@H]23)c1 (relative stereo) [Example 21, exo-11-(3-Methylbenzyl)-4-phenyl-4,11-diazatricyclo[5.3.1.0^2,6]undec-9-ene-3,5,8-trione Trifluoroacetate] | 7.39 | 1.15 | > 100 | > 100 |
| COc1cccc(CN2[C@@H]3C(=O)C=C[C@H]2[C@@H]2C(=O)N(c4ccccc4)C(=O)[C@@H]23)c1 (relative stereo) [Example 22, exo-11-(3-Methoxybenzyl)-4-phenyl-4,11-diazatricyclo[5.3.1.0^2,6]undec-9-ene-3,5,8-trione Trifluoroacetate] | 1.97 | 1.24 | > 100 | 75.2 |
| CS(=O)(=O)c1ccc(CN2[C@@H]3C(=O)C=C[C@H]2[C@@H]2C(=O)N(c4ccccc4)C(=O)[C@@H]23)cc1 (relative stereo) [Example 23, exo-11-(4-(Methylsulfonyl)benzyl)-4-phenyl-4,11-diazatricyclo[5.3.1.0^2,6]-undec-9-ene-3,5,8-trione Trifluoroacetate] | – | 3.83 | – | > 100 |
| O=C1C=C[C@H]2[C@@H]3C(=O)N(c4ccccc4)C(=O)[C@@H]3[C@@H]1N2Cc1ccccc1Cl (relative stereo) [Example 24, exo-11-(2-Chlorobenzyl)-4-phenyl-4,11-diazatricyclo[5.3.1.0^2,6]undec-9-ene-3,5,8-trione Trifluoroacetate] | – | 1.3 | – | > 100 |
| O=C1C=C[C@H]2[C@@H]3C(=O)N(c4ccccc4)C(=O)[C@@H]3[C@@H]1N2CC1CC1 (relative stereo) [Example 25, exo-11-(Cyclopropylmethyl)-4-phenyl-4,11-diazatricyclo[5.3.1.0^2,6]undec-9-ene-3,5,8-trione Trifluoroacetate] | – | 7.06 | – | > 100 |
| O=C1C=C[C@H]2[C@@H]3C(=O)N(c4ccccc4)C(=O)[C@@H]3[C@@H]1N2Cc1cc(F)ccc1F (relative stereo) [Example 27, exo-11-(2,5-Difluorobenzyl)-4-phenyl-4,11-diazatricyclo[5.3.1.0^2,6]undec-9-ene-3,5,8-trione Trifluoroacetate] | – | 1.34 | – | > 100 |
| O=C1C=C[C@H]2[C@@H]3C(=O)N(c4ccccc4)C(=O)[C@@H]3[C@@H]1N2Cc1cccc(F)c1 (relative stereo) [Example 29, exo-11-(3-Fluorobenzyl)-4-phenyl-4,11-diazatricyclo[5.3.1.0^2,6]undec-9-ene-3,5,8-trione Trifluoroacetate] | – | 1.07 | – | > 100 |
| COC(=O)c1cccc(CN2[C@@H]3C(=O)C=C[C@H]2[C@H]2C(=O)N(c4ccccc4)C(=O)[C@H]23)c1 (relative stereo) [Example 45, endo-Methyl 3-((3,5,10-trioxo-4-phenyl-4,11-diazatricyclo[5.3.1.0^2,6]undec-8-en-11-yl)methyl)benzoate] | – | 1.4 | – | > 100 |
| CCN1C(=O)C2C(C1=O)[C@@H]1C=CC(=O)[C@H]2N1Cc1ccccc1 (relative stereo) [Example 46, endo-11-Benzyl-4-ethyl-4,11-diazatricyclo[5.3.1.0^2,6]undec-9-ene-3,5,8-trione Trifluoroacetate] | – | 5.1 | – | > 100 |
| CCN1C(=O)[C@@H]2[C@H](C1=O)[C@H]1C(=O)C=C[C@@H]2N1Cc1ccccc1 (relative stereo) [Example 47, exo-11-Benzyl-4-ethyl-4,11-diazatricyclo[5.3.1.0^2,6]undec-9-ene-3,5,8-trione Trifluoroacetate] | – | 4.15 | – | > 100 |
| CCN1C(=O)[C@@H]2[C@H](C1=O)[C@H]1C(=O)C=C[C@@H]2N1Cc1cccc(C)c1 (relative stereo) [Example 49, exo-4-Ethyl-11-(3-methylbenzyl)-4,11-diazatricyclo[5.3.1.0^2,6]undec-9-ene-3,5,8-trione Trifluoroacetate] | – | 2.53 | – | > 100 |
| CN1C(=O)[C@@H]2[C@H](C1=O)[C@H]1C(=O)C=C[C@@H]2N1Cc1ccccc1 (relative stereo) [Example 51, exo-11-Benzyl-4-methyl-4,11-diazatricyclo[5.3.1.0^2,6]undec-9-ene-3,5,8-trione Trifluoroacetate] | – | 4.61 | – | > 100 |
| Cc1cccc(CN2[C@@H]3C(=O)C=C[C@H]2[C@@H]2C(=O)N(C)C(=O)[C@@H]23)c1 (relative stereo) [Example 53, exo-4-Methyl-11-(3-methylbenzyl)-4,11-diazatricyclo[5.3.1.0^2,6]undec-9-ene-3,5,8-trione Trifluoroacetate] | – | 3.26 | – | > 100 |
| O=C1C=C[C@H]2[C@@H]3C(=O)N(c4ccc(O)cc4)C(=O)[C@@H]3[C@@H]1N2Cc1ccccc1 (relative stereo) [Example 54, exo-11-Benzyl-4-(4-hydroxyphenyl)-4,11-diazatricyclo[5.3.1.0^2,6]undec-9-ene-3,5,8-trione Trifluoroacetate] | – | 1.8 | – | > 100 |
